Among the data in patent publication US8748624B2, “Picolinamido-propanoic acid derivatives useful as glucagon receptor antagonists” (Janssen Pharmaceutica NV, priority 2011, dated 2014) are Ki values, retold here.

Structures are written as SMILES. A value given as a limit tells only on which side of the number the result lay.

One assay addresses human GCGR (Homo sapiens (Human), UniProt P47871). Put plainly: Cellular functional assay, cAMP readout (glucagon-stimulated cAMP in HEK293 cells expressing human GCGR). Type of assay: cell-based. As to conditions: hGluc-1 HEK cells, LANCE TR-FRET, IC50 converted to Ki, average if tested more than once. The procedure, abridged: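 HEK293 cells stably transfected with full-length human GCGR were exposed to compound for 30 min before a 5-min challenge with […] (final) glucagon. Readout was TR-FRET (LANCE) cAMP versus standard curve; IC50s fitted by non-linear regression and converted to Ki values.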
A general note: Time-resolved FRET reads energy transfer from a long-lived donor to a nearby acceptor.

For assay [1], the target named is human glucagon receptor (GCGR) (Homo sapiens (Human), UniProt P47871). Put plainly: Inhibition of 125I-glucagon binding to membranes from HEK293 cells expressing the human glucagon receptor. The note with it: membranes of hGluc-1 HEK cells, 125I-glucagon 0.3 nM, 2 hours room temperature; IC50 converted to Ki; average if tested more than once. The procedure, abridged:
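Compound displacement of ¹²⁵I-glucagon (0.3 nM) was run for 2 h at room temperature in 50 mM HEPES pH 7.4 with 5 mM MgCl2, 1 mM CaCl2 and 0.2% BSA, using 6 μg/well membranes from stably transfected hGCGR HEK293 cells. Filter-bound counts gave IC50s, expressed as Ki.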

Sequence of human GCGR (P47871 26-477): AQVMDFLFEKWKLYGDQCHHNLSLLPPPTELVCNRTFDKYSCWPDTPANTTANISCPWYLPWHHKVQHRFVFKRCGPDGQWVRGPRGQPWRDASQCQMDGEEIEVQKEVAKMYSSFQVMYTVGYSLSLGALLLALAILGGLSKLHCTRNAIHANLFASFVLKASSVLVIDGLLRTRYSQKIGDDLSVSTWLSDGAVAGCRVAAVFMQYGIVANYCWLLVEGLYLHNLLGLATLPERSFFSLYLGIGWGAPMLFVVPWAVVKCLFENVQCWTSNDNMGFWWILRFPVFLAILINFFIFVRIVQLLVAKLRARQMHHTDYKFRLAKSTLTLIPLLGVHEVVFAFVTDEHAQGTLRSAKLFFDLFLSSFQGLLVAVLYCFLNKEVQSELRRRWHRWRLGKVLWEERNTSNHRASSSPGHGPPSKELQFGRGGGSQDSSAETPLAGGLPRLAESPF
Sequence of human glucagon receptor (GCGR) (P47871 26-477): as above

With `CC(C)(C)c1ccc(-c2ccc(NCc3ccccc3-c3ccc(C(=O)NCCC(=O)O)nc3)cc2)cc1` [Compound 3, 3-(5-(2-(((4′-(tert-butyl)-[1,1′-biphenyl]-4-yl)amino)methyl)phenyl)picolinamido)propanoic acid], the inhibition constant (Ki) at human GCGR was greater than 10400 nM; in assay [1] it was greater than 5400 nM.
As to `O=C(O)CCNC(=O)c1ccc(-c2cc(C(F)(F)F)ccc2CNc2ccc(-c3ccc(F)c(C(F)(F)F)c3)cc2)cn1` [Compound 26, 3-(5-(2-(((4′-fluoro-3′-(trifluoromethyl)-[1,1′-biphenyl]-4-yl)amino)methyl)-5-(trifluoromethyl)phenyl)picolinamido)propanoic acid], the Ki on human GCGR was determined as 175 nM; in assay [1], 29.6 nM.
On the same counts, the results for `O=C(O)CCNC(=O)c1ccc(-c2cc(C(F)(F)F)ccc2CNc2ccc(-c3ccc(C(F)(F)F)cc3)cc2)cn1` [Compound 29, 3-(5-(5-(trifluoromethyl)-2-(((4′-(trifluoromethyl)-[1,1′-biphenyl]-4-yl)amino)methyl)phenyl)picolinamido)propanoic acid] are 62 nM and 30.4 nM.
On the same counts, the results for `Cc1cc(-c2ccc(NCc3cc(F)c(F)cc3-c3ccc(C(=O)NCCC(=O)O)nc3)cc2C#N)ccc1F` [Compound 115, 3-(5-(2-(((2-cyano-4′-fluoro-3′-methyl-[1,1′-biphenyl]-4-yl)amino)methyl)-4,5-difluorophenyl)picolinamido)propanoic acid] are 500 nM and 95.7 nM.
On the same counts, the results for `Cc1cc(C(F)(F)F)ccc1-c1ccc(NCc2ccc(C(F)(F)F)cc2-c2ccc(C(=O)NCCC(=O)O)nc2)cc1Cl` [Compound 43, 3-(5-(2-(((2-chloro-2′-methyl-4′-(trifluoromethyl)-[1,1′-biphenyl]-4-yl)amino)methyl)-5-(trifluoromethyl)phenyl)picolinamido)propanoic acid] are 21.9 nM and 17.2 nM.
Consider `O=C(O)CCNC(=O)c1ccc(-c2cc(F)c(F)cc2CNc2ccc(-c3ccc(Cl)cc3F)c(Cl)c2)cn1` [Compound 104, 3-(5-(2-(((2,4′-dichloro-2′-fluoro-[1,1′-biphenyl]-4-yl)amino)methyl)-4,5-difluorophenyl)picolinamido)propanoic acid], for which the Ki at human GCGR worked out at 84.4 nM; in assay [1], 25.4 nM.
On the same counts, the results for `O=C(O)CCNC(=O)c1ccc(-c2cc(Cl)ccc2CNc2ccc(-c3ccc(Cl)cc3Cl)cc2F)cn1` [Compound 11, 3-(5-(5-chloro-2-(((2′,4′-dichloro-3-fluoro-[1,1′-biphenyl]-4-yl)amino)methyl)phenyl)picolinamido)propanoic acid] are 265 nM and 41.2 nM.
Regarding `O=C(O)CCNC(=O)c1ccc(-c2cc(Cl)ccc2CNc2ccc(-c3ccc(F)cc3Cl)cc2)cn1` [Compound 152, 3-(5-(5-chloro-2-(((2′-chloro-4′-fluoro-[1,1′-biphenyl]-4-yl)amino)methyl)phenyl)picolinamido)propanoic acid], the inhibition constant (Ki) at human GCGR is 140 nM; in assay [1], 31.6 nM.
On to `N#Cc1cc(NCc2cc(F)c(F)cc2-c2ccc(C(=O)NCCC(=O)O)nc2)ccc1-c1ccc(F)c(C(F)(F)F)c1` [Compound 109, 3-(5-(2-(((2-cyano-4′-fluoro-3′-(trifluoromethyl)-[1,1′-biphenyl]-4-yl)amino)methyl)-4,5-difluorophenyl)picolinamido)propanoic acid], for which the inhibitory constant (Ki) at human GCGR is 115 nM; in assay [1], 30.4 nM.
With `O=C(O)CCNC(=O)c1ccc(-c2cc(Cl)ccc2CNc2ccc(-c3cccc(C(F)(F)F)c3)cc2)cn1` [Compound 130, 3-(5-(5-chloro-2-(((3′-(trifluoromethyl)-[1,1′-biphenyl]-4-yl)amino)methyl)phenyl)picolinamido)propanoic acid], the figures for the inhibition constant (Ki) (at human GCGR; in assay [1]) were 390 nM and 62.6 nM, respectively.

For orientation: Ki means a dissociation constant, usually derived from enzyme kinetics or from competition with a known ligand. Read a low Ki as a stronger hold on the target.
